This is an account of results in patent publication US8242275B2, “Bicyclic pyrazole compounds as antibacterial agents” (Janssen Pharmaceutica NV, priority 2005, dated 2012).

The target of test [1] is T1, E. coli DNA gyrase (Escherichia coli, UniProt P0AES4+P0AES6).
T1 construct: purchased John Innes Enterprises Ltd. (John Innes Centre, UK)
In words: DNA gyrase inhibition assay (supercoiling). It counts as biochemical. The note with it: for IC50: E. coli DNA gyrase supercoiling, visual inspection of gels, read-out: DNA Gyrase IC50 (converted). The method, boiled down: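 Relaxed pBR322 (250 ng) was supercoiled by 0.2 unit gyrase in Tris-HCl pH 7.5, KCl, MgCl2, DTT, spermidine, 1 mM ATP, glycerol, albumin, 0.5% DMSO final, 30 min at 37° C. Products were resolved on 1.0% agarose gels with ethidium bromide staining.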

Test [2] addresses T2, E. coli topoisomerase IV (Escherichia coli, UniProt P0AFI2+P20083).
T2 construct: purchased John Innes Enterprises Ltd. (John Innes Centre, UK)
In words: Topoisomerase IV inhibition assay (relaxation). The test is classed as biochemical. The note with it: E. coli topoisomerase IV relaxation, visual inspection of gels; read-out: Topoisomerase IV IC50 (converted). As to the method: Inhibition of the relaxation activity of E. coli topoisomerase IV was determined using enzyme, buffers and substrates received from John Innes Enterprises Ltd. (John Innes Centre, UK). The reactions were performed according to the manufacturer's directions, with the following modifications.
DNA relaxation reactions were carried out in a total reaction volume of 20 μL, containing 300 ng of supercoiled pBR322, 40 mM HEPES-KOH (pH 7.6), 100 mM potassium glutamate, 10 mM Mg(OAc)2, 10 mM DTT, 4 μg/mL tRNA, 2 mM ATP, and 50 μg/mL BSA. Compounds, diluted in 10% DMSO, were added to the reaction mixture to reach a final concentration of 0.5% DMSO. Enzyme was diluted to 0.45 unit/μL in a solution of 40 mM HEPES-KOH (pH 7.6), 150 mM potassium glutamate, 1 mM DTT, 1 mM EDTA, and 40% glycerol. Diluted enzyme (0.9 unit) was added to each reaction.
The reactions were incubated at 37° C. for 45 min. The reactions were then cooled to 0° C. followed by addition of 3 μL of 40% glycerol, 100 mM Tris-HCl (pH 7.5), 50 mM EDTA, 0.5% SDS and 0.1% bromophenol blue. Samples were separated on 1.0% agarose gels. Gels were stained with Ethidium bromide and photographed with a Stratagene Eagle Eye II.

Test [3] deals with S. pneumoniae ATCC49619. The test can be described thus: In vitro antibacterial activity (MIC assay), broth microdilution. It counts as cell-based. The note with it: Streptococcus pneumoniae, ATCC49619; read-out: S. pneumoniae ATCC49619 MIC. In short, it runs like this:
(§1)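 Broth microdilution per NCCLS M7-A5: 11-point 2-fold compound dilutions from DMSO stocks, inoculum about 5×10^5 CFU/mL, incubation 35° C for 16–24 h. MIC scored visually against no-compound growth controls, in μg/mL.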

For test [4], the system named is E. coli KL-16 (GSC strain 4245). The description is as above. The test is classed as cell-based. The note with it: Escherichia coli. The method, boiled down: as §1
The test system of test [5] is S. aureus ATCC13709. Described as above. The note with it: Staphylococcus aureus, ATCC13709; read-out: S. aureus ATCC13709 MIC. It counts as cell-based. The method, boiled down: as §1

pIC50: −log10 of the molar value. ≈ marks a conversion by molar mass, not a printed value. Like-named read-outs stand apart in the source and are kept apart here.

A word on the IC50: it is the concentration that gives 50% inhibition. By MIC is commonly meant the lowest concentration found to suppress growth. As usually defined, the pIC50 is −log10 of the IC50, conventionally taken in molar units. A high value points to a small IC50.

T1 sequence (P0AES4 whole entry, one chain of several): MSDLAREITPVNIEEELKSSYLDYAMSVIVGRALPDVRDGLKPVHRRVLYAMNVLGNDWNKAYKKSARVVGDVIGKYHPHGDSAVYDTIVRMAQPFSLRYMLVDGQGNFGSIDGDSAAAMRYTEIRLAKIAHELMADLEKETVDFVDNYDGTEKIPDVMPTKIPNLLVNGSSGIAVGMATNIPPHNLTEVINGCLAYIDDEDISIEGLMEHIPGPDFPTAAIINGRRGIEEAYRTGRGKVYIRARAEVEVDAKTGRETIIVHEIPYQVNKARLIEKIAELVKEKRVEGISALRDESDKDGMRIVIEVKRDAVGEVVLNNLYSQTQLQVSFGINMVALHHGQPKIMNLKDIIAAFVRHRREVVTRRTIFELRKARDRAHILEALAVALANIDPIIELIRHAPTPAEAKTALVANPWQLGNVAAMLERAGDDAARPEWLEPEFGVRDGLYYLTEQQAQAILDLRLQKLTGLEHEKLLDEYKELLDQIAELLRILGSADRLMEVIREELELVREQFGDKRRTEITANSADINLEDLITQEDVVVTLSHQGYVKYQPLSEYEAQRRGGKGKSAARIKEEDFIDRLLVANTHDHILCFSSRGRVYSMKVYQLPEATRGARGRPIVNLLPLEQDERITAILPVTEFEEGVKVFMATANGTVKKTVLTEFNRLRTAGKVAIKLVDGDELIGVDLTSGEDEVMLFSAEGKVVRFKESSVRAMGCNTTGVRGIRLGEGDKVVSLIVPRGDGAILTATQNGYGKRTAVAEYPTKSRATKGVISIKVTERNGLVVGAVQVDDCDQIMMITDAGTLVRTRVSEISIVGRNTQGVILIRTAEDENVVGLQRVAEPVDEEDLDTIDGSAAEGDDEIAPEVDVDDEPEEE
T2 sequence (P0AFI2 whole entry): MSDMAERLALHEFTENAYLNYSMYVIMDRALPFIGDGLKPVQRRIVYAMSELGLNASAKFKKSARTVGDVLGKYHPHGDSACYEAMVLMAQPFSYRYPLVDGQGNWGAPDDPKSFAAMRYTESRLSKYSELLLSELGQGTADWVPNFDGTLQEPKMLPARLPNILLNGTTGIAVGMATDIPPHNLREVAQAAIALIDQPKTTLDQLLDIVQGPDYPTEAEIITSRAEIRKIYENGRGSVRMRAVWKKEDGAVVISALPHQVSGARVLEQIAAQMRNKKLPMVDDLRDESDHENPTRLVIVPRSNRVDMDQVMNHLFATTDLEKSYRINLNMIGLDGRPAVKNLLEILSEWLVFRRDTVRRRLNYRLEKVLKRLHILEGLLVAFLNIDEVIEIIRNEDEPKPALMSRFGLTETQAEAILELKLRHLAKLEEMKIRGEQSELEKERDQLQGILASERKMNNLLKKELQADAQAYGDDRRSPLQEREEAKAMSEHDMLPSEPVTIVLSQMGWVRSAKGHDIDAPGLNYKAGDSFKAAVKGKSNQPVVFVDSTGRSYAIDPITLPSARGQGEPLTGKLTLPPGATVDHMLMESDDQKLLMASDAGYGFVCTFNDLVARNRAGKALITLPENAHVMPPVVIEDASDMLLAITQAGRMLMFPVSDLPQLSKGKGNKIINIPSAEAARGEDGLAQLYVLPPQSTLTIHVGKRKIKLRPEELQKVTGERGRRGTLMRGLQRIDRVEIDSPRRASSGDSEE
T2 sequence (P20083 whole entry): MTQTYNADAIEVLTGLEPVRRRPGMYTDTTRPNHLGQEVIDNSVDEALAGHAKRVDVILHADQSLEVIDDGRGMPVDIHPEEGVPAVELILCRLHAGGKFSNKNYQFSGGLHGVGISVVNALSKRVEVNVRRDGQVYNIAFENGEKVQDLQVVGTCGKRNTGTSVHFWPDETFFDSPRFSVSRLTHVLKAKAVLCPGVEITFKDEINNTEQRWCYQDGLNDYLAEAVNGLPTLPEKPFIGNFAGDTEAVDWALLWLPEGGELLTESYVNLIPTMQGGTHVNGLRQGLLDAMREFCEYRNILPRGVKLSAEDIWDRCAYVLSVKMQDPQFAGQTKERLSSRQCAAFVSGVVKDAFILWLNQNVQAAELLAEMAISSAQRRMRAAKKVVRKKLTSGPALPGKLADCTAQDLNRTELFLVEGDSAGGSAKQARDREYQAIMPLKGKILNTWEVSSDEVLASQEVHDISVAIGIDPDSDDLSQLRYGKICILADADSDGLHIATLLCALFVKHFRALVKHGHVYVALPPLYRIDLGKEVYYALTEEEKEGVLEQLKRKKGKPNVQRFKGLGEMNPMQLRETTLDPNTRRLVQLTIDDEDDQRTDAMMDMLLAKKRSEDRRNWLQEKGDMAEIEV

`COc1ccc2nccc(-n3cc4c(n3)CCC(NC(=O)c3ccc5c(c3)OCCO5)C4)c2n1` (centres unmarked) [Example 1, 2,3-Dihydro-benzo[1,4]dioxine-6-carboxylic acid [2-(6-methoxy-[1,5]naphthyridin-4-yl)-4,5,6,7-tetrahydro-2H-indazol-5-yl]-amide]: the IC50 in test [1] is above 69.9 µM; in test [2], above 2190 nM. Further, the MIC in test [3] is 8 µg/mL (≈ 17.5 µM); in test [4], above 128 µg/mL; in test [5] it was 0.5 µg/mL (≈ 1.09 µM).
Turning to `COc1ccc2nccc(-n3cc4c(n3)CCC(NC(=O)c3cc5ccccc5s3)C4)c2c1` (centres unmarked) [Example 23, Benzo[b]thiophene-2-carboxylic acid [2-(6-methoxy-quinolin-4-yl)-4,5,6,7-tetrahydro-2H-indazol-5-yl]-amide], the IC50 in test [2] is above 2200 nM. In addition, the MIC in test [3] is 2 µg/mL (≈ 4.4 µM); in test [4], above 128 µg/mL; in test [5], below 0.125 µg/mL.
In the same order, the values of `O=C1CSc2cc(F)c(C(=O)NC3CCc4nn(-c5cccc6cccnc56)cc4C3)cc2N1` (centres unmarked) [Example 32, 7-Fluoro-3-oxo-3,4-dihydro-2H-benzo[1,4]thiazine-6-carboxylic acid (2-quinolin-8-yl-4,5,6,7-tetrahydro-2H-indazol-5-yl)-amide] are 264 nM, 4 µg/mL (≈ 8.45 µM), 16 µg/mL (≈ 33.8 µM) and 0.25 µg/mL (≈ 0.528 µM).
In the same order, the values of `O=C1CSc2ccc(C(=O)NC3CCc4nn(-c5ccnc6cc(Cl)ccc56)cc4C3)cc2N1` (centres unmarked) [Example 81, 3-Oxo-3,4-dihydro-2H-benzo[1,4]thiazine-6-carboxylic acid [2-(7-chloro-quinolin-4-yl)-4,5,6,7-tetrahydro-2H-indazol-5-yl]-amide] are above 1020 nM, above 128 µg/mL, above 128 µg/mL and 2 µg/mL (≈ 4.08 µM).
With `COc1ccc2nccc(-n3cc4c(n3)CCC(NC(=O)/C=C/c3ccc(F)c(F)c3)C4)c2n1` (centres unmarked) [Example 93, 3-(3,4-Difluoro-phenyl)-N-[2-(6-methoxy-[1,5]naphthyridin-4-yl)-4,5,6,7-tetrahydro-2H-indazol-5-yl]-acrylamide], the IC50 in test [1] is above 34.7 µM. Further, the MIC is 16 µg/mL (≈ 34.7 µM) in test [3], above 128 µg/mL in test [4] and 0.25 µg/mL (≈ 0.542 µM) in test [5].
For `COc1ccc2nccc(-n3cc4c(n3)CCC(NC(=O)/C=C/c3ccccn3)C4)c2n1` (centres unmarked) [Example 95, N-[2-(6-Methoxy-[1,5]naphthyridin-4-yl)-4,5,6,7-tetrahydro-2H-indazol-5-yl]-3-pyridin-2-yl-acrylamide] the same measures were above 37.5 µM, 8 µg/mL (≈ 18.8 µM), above 128 µg/mL and 2 µg/mL (≈ 4.69 µM).
As for `O=C1CSc2ccc(C(=O)NC3CCc4c(cnn4-c4cc(C(F)(F)F)nc5c(C(F)(F)F)cccc45)C3)cc2N1` (centres unmarked) [Example 96, 3-Oxo-3,4-dihydro-2H-benzo[1,4]thiazine-6-carboxylic acid [1-(2,8-bis-trifluoromethyl-quinolin-4-yl)-4,5,6,7-tetrahydro-1H-indazol-5-yl]-amide], the IC50 in test [1] is above 6.76 µM. In addition, the MIC was determined as 32 µg/mL (≈ 54.1 µM) in test [3], 64 µg/mL (≈ 108 µM) in test [4] and 8 µg/mL (≈ 13.5 µM) in test [5].
In the same order, the values of `O=C1CSc2ccc(C(=O)NC3CCc4c(cnn4-c4cc(C(F)(F)F)nc5ccccc45)C3)cc2N1` (centres unmarked) [Example 97, 3-Oxo-3,4-dihydro-2H-benzo[1,4]thiazine-6-carboxylic acid [1-(2-trifluoromethyl-quinolin-4-yl)-4,5,6,7-tetrahydro-1H-indazol-5-yl]-amide] are above 30.6 µM, above 128 µg/mL, above 128 µg/mL and above 128 µg/mL.
In the same order, the values of `COc1ccc2nccc(-n3cc4c(n3)CCC(NCc3cc(F)c5c(c3)OCCO5)C4)c2c1` (centres unmarked) [Example 100, (8-Fluoro-2,3-dihydro-benzo[1,4]dioxin-6-ylmethyl)-[2-(6-methoxy-quinolin-4-yl)-4,5,6,7-tetrahydro-2H-indazol-5-yl]-amine] are 1.09 µM, 0.5 µg/mL (≈ 1.09 µM), 16 µg/mL (≈ 34.7 µM) and 0.25 µg/mL (≈ 0.543 µM).
In the same order, the values of `COc1ccc2nccc(-n3cc4c(n3)CCC(NCc3cc(F)c5c(c3)OCCO5)C4)c2n1` (centres unmarked) [Example 101, (8-Fluoro-2,3-dihydro-benzo[1,4]dioxin-6-ylmethyl)-[2-(6-methoxy-[1,5]naphthyridin-4-yl)-4,5,6,7-tetrahydro-2H-indazol-5-yl]-amine] are 0.542 µM, 1 µg/mL (≈ 2.17 µM), 4 µg/mL (≈ 8.67 µM) and 0.125 µg/mL (≈ 0.271 µM).
Regarding `COc1ccc2nccc(-n3cc4c(n3)CCC(NCc3cc5c(cc3Cl)OCCO5)C4)c2n1` (centres unmarked) [Example 104, (7-Chloro-2,3-dihydro-benzo[1,4]dioxin-6-ylmethyl)-[2-(6-methoxy-[1,5]naphthyridin-4-yl)-4,5,6,7-tetrahydro-2H-indazol-5-yl]-amine], the half-maximal inhibitory concentration (IC50) in test [1] is 1.05 µM. The MIC in test [3] was determined as 1 µg/mL (≈ 2.09 µM); in test [4] it was 8 µg/mL (≈ 16.7 µM); in test [5] it was 0.125 µg/mL (≈ 0.262 µM).
For `COc1ccc2nccc(-n3cc4c(n3)CCC(NCc3cc5c(cc3Cl)OCO5)C4)c2n1` (centres unmarked) [Example 105, N-((6-chlorobenzo[d][1,3]dioxol-5-yl)methyl)-2-(6-methoxy-1,5-naphthyridin-4-yl)-4,5,6,7-tetrahydro-2H-indazol-5-amine] the same measures were 4.31 µM, 4 µg/mL (≈ 8.62 µM), above 128 µg/mL and 0.5 µg/mL (≈ 1.08 µM).
The compound `COc1ccc2nccc(-n3cc4c(n3)CCC(NCc3cc5c(cc3F)SCCN5)C4)c2c1` (centres unmarked) [Example 106] showed a pIC50 in test [1] of 5.38. Besides, the MIC turned out to be 1 µg/mL (≈ 2.1 µM) in test [3], 8 µg/mL (≈ 16.8 µM) in test [4] and 0.5 µg/mL (≈ 1.05 µM) in test [5].
Take `COc1ccc2nccc(-n3cc4c(n3)CCC(NC(=O)c3ccc(C)c([N+](=O)[O-])c3)C4)c2c1` (centres unmarked) [Example 111, N-[2-(6-Methoxy-quinolin-4-yl)-4,5,6,7-tetrahydro-2H-indazol-5-yl]-4-methyl-3-nitro-benzamide]: the IC50 in test [1] was above 35 µM. Moreover, the MIC in test [3] was 4 µg/mL (≈ 8.74 µM); in test [4] it was above 128 µg/mL; in test [5], 0.25 µg/mL (≈ 0.546 µM).
In the same order, the values of `COc1ccc2nccc(-n3cc4c(n3)CCC(NC(=O)c3cc5c(cc3C(F)(F)F)SCC(=O)N5)C4)c2n1` (centres unmarked) [Example 112, 3-Oxo-7-trifluoromethyl-3,4-dihydro-2H-benzo[1,4]thiazine-6-carboxylic acid [2-(6-methoxy-[1,5]naphthyridin-4-yl)-4,5,6,7-tetrahydro-2H-indazol-5-yl]-amide] are 0.451 µM, 8 µg/mL (≈ 14.4 µM), 4 µg/mL (≈ 7.21 µM) and 0.125 µg/mL (≈ 0.225 µM).
For `COc1ccc2nccc(-n3cc4c(n3)CCC(NC(=O)c3ccc5c(c3)NC(=O)CO5)C4)c2c1` (centres unmarked) [Example 116, 3-Oxo-3,4-dihydro-2H-benzo[1,4]oxazine-6-carboxylic acid [2-(6-methoxy-quinolin-4-yl)-4,5,6,7-tetrahydro-2H-indazol-5-yl]-amide] the same measures were 0.532 µM, 4 µg/mL (≈ 8.52 µM), 2 µg/mL (≈ 4.26 µM) and 0.125 µg/mL (≈ 0.266 µM).
For `COc1ccc2nccc(-n3cc4c(n3)CCC(NC(=O)c3ccc([N+](=O)[O-])cc3F)C4)c2c1` (centres unmarked) [Example 118, 2-Fluoro-N-[2-(6-methoxy-quinolin-4-yl)-4,5,6,7-tetrahydro-2H-indazol-5-yl]-4-nitro-benzamide] the same measures were above 34.7 µM, above 128 µg/mL, above 128 µg/mL and 4 µg/mL (≈ 8.67 µM).
On to `COc1ccc2nccc(-n3cc4c(n3)CCC(NC(=O)/C=C/c3ccc(F)cc3F)C4)c2n1` (centres unmarked) [Example 120, 3-(2,4-Difluoro-phenyl)-N-[2-(6-methoxy-[1,5]naphthyridin-4-yl)-4,5,6,7-tetrahydro-2H-indazol-5-yl]-acrylamide], for which the IC50 in test [1] was 4.33 µM. In addition, the MIC was 4 µg/mL (≈ 8.67 µM) in test [3], above 128 µg/mL in test [4] and 0.125 µg/mL (≈ 0.271 µM) in test [5].
In the same order, the values of `O=C1CSc2ccc(CNC3CCc4c(cnn4-c4cc(C(F)(F)F)nc5ccccc45)C3)cc2N1` (centres unmarked) [Example 139, 6-{[1-(2-Trifluoromethyl-quinolin-4-yl)-4,5,6,7-tetrahydro-1H-indazol-5-ylamino]-methyl}-4H-benzo[1,4]thiazin-3-one] are above 31.4 µM, 32 µg/mL (≈ 62.8 µM), above 128 µg/mL and 8 µg/mL (≈ 15.7 µM).
